Experimental data reported in patent US20240292837A1, “CHROMONE DERIVATIVES AS ATTRACTANTS AND REPELLENTS OF BLOOD-SUCKING, BITING INVERTEBRATES” (CENTRE NATIONAL DE LA RECHERCHE SCIENTIFIQUE, priority 2021, published 2024).

What was measured:
Aedes albopictus [1] = test: Evaluation of the combination 4-hydroxycoumarin / 7-nonyloxychromone (KI vs amount deposited, FIG. 1); assay type: in vivo
Excerpt: Said figure represents the IK (in %) as a function of the amount deposited (in mg).
It is possible to combine a chromone compound with other compounds of different structure.

Aedes albopictus [2] = test: Evaluation of the repellent and/or attractant effect in a tunnel olfactometer; assay type: in vivo; settings: for Repulsion index 5 mg deposition / Repulsion index 10 mg deposition / Repulsion index 30 mg deposition / KI (%) kairomone index / RI (%) repulsion index: negative = attractant; for Control (±SD), mean number of mosquitoes in the control zone / Treated (±SD), mean number of mosquitoes in the treated zone / Treated/Product (±SD), mean number of mosquitoes in the treated zone: 15 females; for repellent or attractant effect (in words): over the doses tested; for repellent effect compared with Picaridin and DEET (in words): equivalent/identical doses (10 and 30 mg/ml)
Excerpt: The tunnel olfactometer is a 1 m long glass parallelepiped with a 5×5 cm side. The tube is equipped with 3 openings: two on each side, one for feeding in the paper impregnated with the product to be tested, and the other for the paper containing a control. The opening in the middle is for feeding in mosquitoes. Both ends of the tube are closed by covers.
The olfactometer is divided into three compartments or zones: • a neutral zone in the middle; • a test or treated area which is on the side of depositing the product; and • a control area which is located on the side of depositing the control.
For each test, 15 Aedes albopictus females (aged 5 to 12 days) are fed into the neutral zone of the tunnel olfactometer. Mosquitoes are kept for 10 minutes for a time of adaptation. Papers impregnated and dried with a solution of product in ethanol and pure ethanol as a reference are fed in, then the barriers are opened to allow mosquitoes to circulate freely inside the tube. Three test repetitions were carried out for each product. A repetition lasts 20 minutes and the results observed were recorded every 5 minutes.
The values measured are the activity index and the repulsion index. The activity index (Al) describes the percentage of mosquitoes in the control zone (T) and in the treated zone (P) with respect to the total number of mosquitoes tested. Said value should be greater than 30% for the test to be considered significant.
The repulsion index (RI) represents the percentage of the difference in the number of mosquitoes in the control part and in the treated part divided by the sum of the two values. A negative value of the parameter (RI) indicates an attractant activity (kairomone index. KI) of the product tested.
[formula] • Al: Activity index • RI: Repulsion index • T: Number of mosquitoes in the control area • P: Number of mosquitoes in the treated area

| Molecule | Repulsion index 5 mg deposition (Aedes albopictus [2]) | Repulsion index 10 mg deposition (Aedes albopictus [2]) | Repulsion index 30 mg deposition (Aedes albopictus [2]) | AI (%) activity index (Aedes albopictus [2]; dose 5 mg/ml) | Control (±SD), mean number of mosquitoes in the control zone (Aedes albopictus [2]; dose 5 mg/ml in treated zone) | Treated/Product (±SD), mean number of mosquitoes in the treated zone (Aedes albopictus [2]; dose 5 mg/ml) | KI (%) kairomone index (Aedes albopictus [2]; dose 5 mg/ml) | AI (%) activity index (Aedes albopictus [2]; dose 10 mg/ml) | Control (±SD), mean number of mosquitoes in the control zone (Aedes albopictus [2]; dose 10 mg/ml in treated zone) | Treated/Product (±SD), mean number of mosquitoes in the treated zone (Aedes albopictus [2]; dose 10 mg/ml) | KI (%) kairomone index (Aedes albopictus [2]; dose 10 mg/ml) | AI (%) activity index (Aedes albopictus [2]; dose 30 mg/ml) | Control (±SD), mean number of mosquitoes in the control zone (Aedes albopictus [2]; dose 30 mg/ml in treated zone) | Treated/Product (±SD), mean number of mosquitoes in the treated zone (Aedes albopictus [2]; dose 30 mg/ml) | KI (%) kairomone index (Aedes albopictus [2]; dose 30 mg/ml) | repellent or attractant effect (in words) (Aedes albopictus [2]) | further results |
| --- | --- | --- | --- | --- | --- | --- | --- | --- | --- | --- | --- | --- | --- | --- | --- | --- | --- |
| CCCCCCCC(C)Oc1ccc2c(=O)ccoc2c1 (racemic) [7-sec-nonyloxychromone] | −65.8% | −63.7% | −27.1% | 83.9% | 2.2 ± 0.3 | 10.4 ± 0.1 | −65.8% | 91.7% | 2.5 ± 0.5 | 11.3 ± 0.0 | −63.6% | 88.3% | 4.8 ± 0.4 | 8.4 ± 0.2 | −27.1% | stays attractant | change of attractant effect with dose (in words) (Aedes albopictus [1]; from the 10 mg dose onwards): significant decrease; AI (%) activity index (Aedes albopictus [2]; dose 0.1 mg/ml): 91.1%; Control (±SD), mean number of mosquitoes in the control zone (Aedes albopictus [2]; dose 0.1 mg/ml in treated zone): 2.5 ± 0.2; Treated (±SD), mean number of mosquitoes in the treated zone (Aedes albopictus [2]; dose 0.1 mg/ml): 11.2 ± 0.6; KI (%) kairomone index (Aedes albopictus [2]; dose 0.1 mg/ml): −63.5%; AI (%) activity index (Aedes albopictus [2]; dose 2 mg/ml): 91.1%; Control (±SD), mean number of mosquitoes in the control zone (Aedes albopictus [2]; dose 2 mg/ml in treated zone): 1.4 ± 0.4; Treated (±SD), mean number of mosquitoes in the treated zone (Aedes albopictus [2]; dose 2 mg/ml): 12.3 ± 0.0; KI (%) kairomone index (Aedes albopictus [2]; dose 2 mg/ml): −79.8%; maximum value of KI (Aedes albopictus [2]; dose of 2 mg/ml, given as magnitude): ~80%; attractant activity (KI) (Aedes albopictus [2]; up to 10 mg/ml, given as magnitude): above 65% |
| CCC[C@H](C)Oc1ccc2c(=O)ccoc2c1 [S-(+)-sec-pentoxychromone] | – | – | – | 83.9% | 3.1 ± 1.2 | 9.5 ± 0.7 | −52.4% | 95% | 5.8 ± 0.2 | 8.4 ± 0.1 | −18.2% | 77.8% | 5.2 ± 0.3 | 6.5 ± 0.7 | −10.7% | attractant | AI (%) activity index (Aedes albopictus [2]; dose 1 mg/ml): 93.3%; Control (±SD), mean number of mosquitoes in the control zone (Aedes albopictus [2]; dose 1 mg/ml in treated zone): 3.8 ± 0.3; Treated (±SD), mean number of mosquitoes in the treated zone (Aedes albopictus [2]; dose 1 mg/ml): 10.3 ± 0.7; KI (%) kairomone index (Aedes albopictus [2]; dose 1 mg/ml): −46.3% |
| CCC(C)Oc1ccc2c(=O)ccoc2c1 (racemic) [7-sec-butoxychromone] | – | – | – | 71.1% | 7.3 ± 0.4 | 3.3 ± 0.1 | – | 71.8% | 7.2 ± 0.9 | 3.6 ± 0.4 | – | 78% | 8.3 ± 0.5 | 3.4 ± 0.9 | – | repellent at any dose | RI (%) repulsion index (Aedes albopictus [2]; dose 5 mg/ml): 37.6%; RI (%) repulsion index (Aedes albopictus [2]; dose 10 mg/ml): 37.9%; RI (%) repulsion index (Aedes albopictus [2]; dose 30 mg/ml): 56.1%; AI (%) activity index (Aedes albopictus [2]; dose 60 mg/ml): 90.6%; Control (±SD), mean number of mosquitoes in the control zone (Aedes albopictus [2]; dose 60 mg/ml in treated zone): 11.8 ± 0.7; Treated/Product (±SD), mean number of mosquitoes in the treated zone (Aedes albopictus [2]; dose 60 mg/ml): 1.8 ± 0.2; RI (%) repulsion index (Aedes albopictus [2]; dose 60 mg/ml): 72.9% |
| C=CC(O)CCCCC (stereo not drawn) [Octen-3-ol, octen-3-ol, reference compound] | −41.7% | −54.7% | −61.6% | – | – | – | – | – | – | – | – | – | – | – | – | – | – |
| CCC(C)OC(=O)N1CCCCC1CCO (stereo not drawn) [Picaridin, reference compound] | 42.6% | 49.6% | 59.7% | – | – | – | – | – | – | – | – | – | – | – | – | – | – |
| CC[C@H](C)Oc1ccc2c(=O)ccoc2c1 [S-(+)-sec-butoxychromone] | – | – | – | 91.7% | 4.8 ± 0.5 | 9.0 ± 0.2 | – | 87.2% | 4.2 ± 0.9 | 8.9 ± 1.1 | – | 83.3% | 9.3 ± 0.8 | 3.3 ± 0.2 | – | attractant at low doses and repellent at high doses | RI (%) repulsion index (Aedes albopictus [2]; dose 5 mg/ml): −31.2%; RI (%) repulsion index (Aedes albopictus [2]; dose 10 mg/ml): −35.8%; RI (%) repulsion index (Aedes albopictus [2]; dose 30 mg/ml): 47.9%; AI (%) activity index (Aedes albopictus [2]; dose 60 mg/ml): 89.4%; Control (±SD), mean number of mosquitoes in the control zone (Aedes albopictus [2]; dose 60 mg/ml in treated zone): 11.4 ± 0.8; Treated/Product (±SD), mean number of mosquitoes in the treated zone (Aedes albopictus [2]; dose 60 mg/ml): 2.0 ± 0.0; RI (%) repulsion index (Aedes albopictus [2]; dose 60 mg/ml): 70.5% |
| O=c1cc(O)c2ccccc2o1 [4-hydroxycoumarin] | – | – | – | – | – | – | – | – | – | – | – | – | – | – | – | – | increase in attraction (Aedes albopictus [1]; higher doses (10 and 30 mg) vs low doses): 10%; kairomone index KI (Aedes albopictus [1]; low dose (or quantity)): ~40% |
| CCCCCCCCCCOc1ccc2c(=O)ccoc2c1 [7-n-decyloxychromone] | – | – | – | – | – | – | – | 85% | 3.9 ± 0.3 | 8.8 ± 0.9 | −37.8 ± 5.2% | – | – | – | – | – | attractant effect compared with a reference attractant (in words) (Aedes albopictus [2]; same doses): attractant effect equivalent to that of 7-sec-nonyloxychromone |
| CCN(CC)C(=O)c1cccc(C)c1 [DEET, reference compound] | 55.5% | 60.4% | 59.1% | – | – | – | – | – | – | – | – | – | – | – | – | – | – |
| R-(−)-sec-butoxychromone | 51% | 65.6% | 79.5% | 84% | 9.5 ± 0.3 | 3.1 ± 0.1 | – | 88.9% | 11 ± 0.3 | 2.3 ± 0.7 | – | 92.2% | 12.4 ± 0.1 | 1.4 ± 0.1 | – | repellent at any dose | RI (%) repulsion index (Aedes albopictus [2]; dose 5 mg/ml): 51.3%; RI (%) repulsion index (Aedes albopictus [2]; dose 10 mg/ml): 65.6%; RI (%) repulsion index (Aedes albopictus [2]; dose 30 mg/ml): 79.5%; AI (%) activity index (Aedes albopictus [2]; dose 60 mg/ml): 92%; Control (±SD), mean number of mosquitoes in the control zone (Aedes albopictus [2]; dose 60 mg/ml in treated zone): 12.2 ± 0.1; Treated/Product (±SD), mean number of mosquitoes in the treated zone (Aedes albopictus [2]; dose 60 mg/ml): 1.6 ± 0.2; RI (%) repulsion index (Aedes albopictus [2]; dose 60 mg/ml): 76.6%; repellent effect compared with Picaridin and DEET (in words) (Aedes albopictus [2]; listed as (R) 7-sec-butoxychromone): as effective and more effective than Picaridin and DEET; repellent effect compared with Picaridin and DEET (in words) (Aedes albopictus [2]; listed as enantiomer R): as significant as DEET and picaridin |
| R-(−)-sec-pentoxychromone | – | – | – | 86.7% | 2.2 ± 0.4 | 10.8 ± 0.6 | −66.6% | 81.1% | 3.6 ± 0.4 | 8.6 ± 0.1 | −47.1% | 90% | 6.6 ± 0.4 | 6.9 ± 0.3 | −2.8% | attractant | AI (%) activity index (Aedes albopictus [2]; dose 1 mg/ml): 92.2%; Control (±SD), mean number of mosquitoes in the control zone (Aedes albopictus [2]; dose 1 mg/ml in treated zone): 5.3 ± 0.3; Treated (±SD), mean number of mosquitoes in the treated zone (Aedes albopictus [2]; dose 1 mg/ml): 8.6 ± 0.2; KI (%) kairomone index (Aedes albopictus [2]; dose 1 mg/ml): −24.3% |
| CCCC(C)Oc1ccc2c(=O)ccoc2c1 (racemic) [7-sec-pentoxychromone] | −59.2% | −47.8% | −28.7% | 80.1% | 2.5 ± 0.3 | 9.5 ± 0.2 | −59.2% | 88.3% | 3.4 ± 0.4 | 9.8 ± 1.1 | −47.9% | 90% | 4.8 ± 0.4 | 8.7 ± 0.4 | −28.6% | attractant | AI (%) activity index (Aedes albopictus [2]; dose 1 mg/ml): 85%; Control (±SD), mean number of mosquitoes in the control zone (Aedes albopictus [2]; dose 1 mg/ml in treated zone): 3.5 ± 0.5; Treated (±SD), mean number of mosquitoes in the treated zone (Aedes albopictus [2]; dose 1 mg/ml): 9.3 ± 0.7; KI (%) kairomone index (Aedes albopictus [2]; dose 1 mg/ml): −45.6% |
